PubChem BioAssay AID1259407 (Chemical Carcinogenesis Research Information System (CCRIS), 2018)
The source made the active and inactive calls. No rule for the calls is given here.

Test system: CCRIS mutagenicity, Ames/micronucleus/aberration tests
Assay: CCRIS mutagenicity studies
[1] = Test System: AMES SALMONELLA TYPHIMURIUM, Strain/Indicator: TA98, Metabolic Activation: NONE, Method: STANDARD PLATE

With `OCCOc1ccccc1` the mutagenic call (Test System: Ames Salmonella typhimurium, Strain/Indicator: TA98, Metabolic Activation: None, Method: Preincubation) was “inactive; negative”, the mutagenic call (Test System: Ames Salmonella typhimurium, Strain/Indicator: TA98, Metabolic Activation: Rat, Liver, S-9, Phenobarbital and 5,6-benzoflavone, Method: Preincubation) was “inactive; negative” and the mutagenic call (Test System: Ames Salmonella typhimurium, Strain/Indicator: TA100, Metabolic Activation: None, Method: Preincubation) was “inactive; negative”. For the same molecule, the mutagenic call (Test System: Ames Salmonella typhimurium, Strain/Indicator: TA100, Metabolic Activation: Rat, Liver, S-9, Phenobarbital and 5,6-benzoflavone, Method: Preincubation) was “inactive; negative”, the mutagenic call (Test System: Ames Salmonella typhimurium, Strain/Indicator: TA1535, Metabolic Activation: None, Method: Preincubation) was “inactive; negative” and the mutagenic call (Test System: Ames Salmonella typhimurium, Strain/Indicator: TA1535, Metabolic Activation: Rat, Liver, S-9, Phenobarbital and 5,6-benzoflavone, Method: Preincubation) was “inactive; negative”. For the same molecule, the mutagenic call (Test System: Ames Salmonella typhimurium, Strain/Indicator: TA1537, Metabolic Activation: None, Method: Preincubation) was “inactive; negative”, the mutagenic call (Test System: Ames Salmonella typhimurium, Strain/Indicator: TA1537, Metabolic Activation: Rat, Liver, S-9, Phenobarbital and 5,6-benzoflavone, Method: Preincubation) was “inactive; negative” and the mutagenic call (Test System: E. coli, Strain/Indicator: WP2uvrA/pKM101, Metabolic Activation: None, Method: Preincubation) was “inactive; negative”. For the same molecule, the mutagenic call (Test System: E. coli, Strain/Indicator: WP2uvrA/pKM101, Metabolic Activation: Rat, Liver, S-9, Phenobarbital and 5,6-benzoflavone, Method: Preincubation) was “inactive; negative”.
For `O=[N+]([O-])c1ccc2c(ccc3cc([N+](=O)[O-])ccc32)c1`, the mutagenic call (Test System: AMES SALMONELLA TYPHIMURIUM, Strain/Indicator: TA98(1,8-DNP6), Metabolic Activation: NONE, Method: STANDARD PLATE) was “active; positive”, the mutagenic call (Test System: AMES SALMONELLA TYPHIMURIUM, Strain/Indicator: TA98(NR), Metabolic Activation: NONE, Method: STANDARD PLATE) was “active; positive” and the mutagenic call (Test System: AMES SALMONELLA TYPHIMURIUM, Strain/Indicator: TA98, Metabolic Activation: NONE, Method: PREINCUBATION) was “active; positive”. The mutagenic call [1] was “active; positive”, the mutagenic call (Test System: AMES SALMONELLA TYPHIMURIUM, Strain/Indicator: TA98, Metabolic Activation: RAT, LIVER, S-9, PCB (10%), Method: PREINCUBATION) was “inactive; negative” and the mutagenic call (Test System: AMES SALMONELLA TYPHIMURIUM, Strain/Indicator: TA7001, Metabolic Activation: NONE, Method: PREINCUBATION) was “active; positive”. The mutagenic call (Test System: AMES SALMONELLA TYPHIMURIUM, Strain/Indicator: TA7002, Metabolic Activation: NONE, Method: PREINCUBATION) was “active; positive”, the mutagenic call (Test System: AMES SALMONELLA TYPHIMURIUM, Strain/Indicator: TA7003, Metabolic Activation: NONE, Method: PREINCUBATION) was “active; positive” and the mutagenic call (Test System: AMES SALMONELLA TYPHIMURIUM, Strain/Indicator: TA7004, Metabolic Activation: NONE, Method: PREINCUBATION) was “active; positive”. The mutagenic call (Test System: AMES SALMONELLA TYPHIMURIUM, Strain/Indicator: TA7005, Metabolic Activation: NONE, Method: PREINCUBATION) was “active; positive” and the mutagenic call (Test System: AMES SALMONELLA TYPHIMURIUM, Strain/Indicator: TA7006, Metabolic Activation: NONE, Method: PREINCUBATION) was “active; positive”.
In the case of `CCc1cccc2c3c([nH]c12)C(CC)(CC(=O)O)OCC3` (stereo unspecified), the mutagenic call [1] was “inactive; negative”, the mutagenic call (Test System: AMES SALMONELLA TYPHIMURIUM, Strain/Indicator: TA98, Metabolic Activation: RAT, LIVER, S-9, AROCLOR 1254, Method: STANDARD PLATE) was “inactive; negative” and the mutagenic call (Test System: AMES SALMONELLA TYPHIMURIUM, Strain/Indicator: TA100, Metabolic Activation: NONE, Method: STANDARD PLATE) was “inactive; negative”. The mutagenic call (Test System: AMES SALMONELLA TYPHIMURIUM, Strain/Indicator: TA100, Metabolic Activation: RAT, LIVER, S-9, AROCLOR 1254, Method: STANDARD PLATE) was “inactive; negative”, the mutagenic call (Test System: AMES SALMONELLA TYPHIMURIUM, Strain/Indicator: TA1535, Metabolic Activation: NONE, Method: STANDARD PLATE) was “inactive; negative” and the mutagenic call (Test System: AMES SALMONELLA TYPHIMURIUM, Strain/Indicator: TA1535, Metabolic Activation: RAT, LIVER, S-9, AROCLOR 1254, Method: STANDARD PLATE) was “inactive; negative”. The mutagenic call (Test System: AMES SALMONELLA TYPHIMURIUM, Strain/Indicator: TA1537, Metabolic Activation: NONE, Method: STANDARD PLATE) was “inactive; negative”, the mutagenic call (Test System: AMES SALMONELLA TYPHIMURIUM, Strain/Indicator: TA1537, Metabolic Activation: RAT, LIVER, S-9, AROCLOR 1254, Method: STANDARD PLATE) was “inactive; negative” and the mutagenic call (Test System: E. COLI, Strain/Indicator: WP2 UVRA, Metabolic Activation: NONE, Method: STANDARD PLATE) was “inactive; negative”. The mutagenic call (Test System: E. COLI, Strain/Indicator: WP2 UVRA, Metabolic Activation: RAT, LIVER, S-9, AROCLOR 1254, Method: STANDARD PLATE) was “inactive; negative”.
